Organism: Rattus norvegicus
Experiment: DrugMatrix - Regimen: Daily Repeat
Format: toxicity, organism-based, Sprague-Dawley
Set-up: regimen Daily Repeat, gender Male, age 6-8 weeks
Details: in vivo, po, 800 mg/kg, route oral GAVAGE, dose level High, vehicle .5 % CMC; for BASOPHIL / EOSINOPHIL / ERYTHROCYTE COUNT / HEMATOCRIT / HEMOGLOBIN / LEUKOCYTE COUNT / LYMPHOCYTE / MEAN CORPUSCULAR HEMOGLOBIN / MEAN CORPUSCULAR HEMOGLOBIN CONCENTRATION / MEAN CORPUSCULAR VOLUME / MONOCYTE / NEUTROPHIL / PLATELET COUNT: tissue Blood; for ALANINE AMINOTRANSFERASE / ALBUMIN / ALKALINE PHOSPHATASE / ASPARTATE AMINOTRANSFERASE / BLOOD UREA NITROGEN / CARBON DIOXIDE / CHLORIDE / CHOLESTEROL / CREATINE PHOSPHOKINASE / CREATININE / GLUCOSE / LACTATE DEHYDROGENASE / LIPASE / PHOSPHORUS / POTASSIUM / SODIUM / TOTAL BILIRUBIN / TOTAL PROTEIN / URIC ACID: tissue Plasma

## Oc1ccc(O)cc1 [HYDROQUINONE]
72 h, time 3 day
  BASOPHIL: 0.25%
  EOSINOPHIL: 0.45%
  ERYTHROCYTE COUNT: 6.72 x10E6/uL
  HEMATOCRIT: 44.05%
  HEMOGLOBIN: 14.5 G/DL
  LEUKOCYTE COUNT: 7.7 x10E3/uL
  LYMPHOCYTE: 89.1%
  MEAN CORPUSCULAR HEMOGLOBIN: 21.6 pg
  MEAN CORPUSCULAR HEMOGLOBIN CONCENTRATION: 32.9 G/DL
  MEAN CORPUSCULAR VOLUME: 65.5 fL
  MONOCYTE: 1.5%
  NEUTROPHIL: 7.45%
  PLATELET COUNT: 1149.5 x10E3/uL
  ALANINE AMINOTRANSFERASE: 48 u/L
  ALBUMIN: 4.2 G/DL
  ALKALINE PHOSPHATASE: 309.5 u/L
  ASPARTATE AMINOTRANSFERASE: 52 u/L
  BLOOD UREA NITROGEN: 15.5 mg/dL
  CARBON DIOXIDE: 23 mmol/L
  CHLORIDE: 107.5 MEQ/L
  CHOLESTEROL: 80.5 mg/dL
  CREATINE PHOSPHOKINASE: 183 u/L
  CREATININE: 0.45 mg/dL
  GLUCOSE: 164 mg/dL
  LACTATE DEHYDROGENASE: 102 u/L
  LIPASE: 23.5 u/L
  PHOSPHORUS: 13.75 mg/dL
  POTASSIUM: 6.4 MEQ/L
  SODIUM: 150 MEQ/L
  TOTAL BILIRUBIN: 0.3 mg/dL
  TOTAL PROTEIN: 6.5 G/DL
  URIC ACID: 2.25 mg/dL
120 h, time 5 day
  BASOPHIL: 0.2%
  EOSINOPHIL: 0.3%
  ERYTHROCYTE COUNT: 6.45 x10E6/uL
  HEMATOCRIT: 41.5%
  HEMOGLOBIN: 13.7 G/DL
  LEUKOCYTE COUNT: 10.53 x10E3/uL
  LYMPHOCYTE: 89%
  MEAN CORPUSCULAR HEMOGLOBIN: 21.3 pg
  MEAN CORPUSCULAR HEMOGLOBIN CONCENTRATION: 33.1 G/DL
  MEAN CORPUSCULAR VOLUME: 64.4 fL
  MONOCYTE: 1.6%
  NEUTROPHIL: 6.2%
  PLATELET COUNT: 1513 x10E3/uL
  ALANINE AMINOTRANSFERASE: 36.5 u/L
  ALBUMIN: 4.2 G/DL
  ALKALINE PHOSPHATASE: 411 u/L
  ASPARTATE AMINOTRANSFERASE: 55 u/L
  BLOOD UREA NITROGEN: 15.5 mg/dL
  CARBON DIOXIDE: 27 mmol/L
  CHLORIDE: 105 MEQ/L
  CHOLESTEROL: 70.5 mg/dL
  CREATINE PHOSPHOKINASE: 206 u/L
  CREATININE: 0.25 mg/dL
  GLUCOSE: 163 mg/dL
  LACTATE DEHYDROGENASE: 87.5 u/L
  LIPASE: 20 u/L
  PHOSPHORUS: 12.6 mg/dL
  POTASSIUM: 6.1 MEQ/L
  SODIUM: 148 MEQ/L
  TOTAL BILIRUBIN: 0.55 mg/dL
  TOTAL PROTEIN: 6.5 G/DL
  URIC ACID: 2.05 mg/dL
[…], time 14 day
  BASOPHIL: 0.8%
  EOSINOPHIL: 0.2%
  ERYTHROCYTE COUNT: 6.87 x10E6/uL
  HEMATOCRIT: 42.85%
  HEMOGLOBIN: 14.03 G/DL
  LEUKOCYTE COUNT: 14.3 x10E3/uL
  LYMPHOCYTE: 83.92%
  MEAN CORPUSCULAR HEMOGLOBIN: 20.45 pg
  MEAN CORPUSCULAR HEMOGLOBIN CONCENTRATION: 32.83 G/DL
  MEAN CORPUSCULAR VOLUME: 62.4 fL
  MONOCYTE: 1.9%
  NEUTROPHIL: 11.55%
  PLATELET COUNT: 1262 x10E3/uL
  ALANINE AMINOTRANSFERASE: 50 u/L
  ALBUMIN: 4.45 G/DL
  ALKALINE PHOSPHATASE: 349.75 u/L
  ASPARTATE AMINOTRANSFERASE: 70.25 u/L
  BLOOD UREA NITROGEN: 16.25 mg/dL
  CARBON DIOXIDE: 30.25 mmol/L
  CHLORIDE: 103.5 MEQ/L
  CHOLESTEROL: 84.5 mg/dL
  CREATINE PHOSPHOKINASE: 254.25 u/L
  CREATININE: 0.4 mg/dL
  GLUCOSE: 161.5 mg/dL
  LACTATE DEHYDROGENASE: 60.75 u/L
  LIPASE: 17.25 u/L
  PHOSPHORUS: 12.07 mg/dL
  POTASSIUM: 6.7 MEQ/L
  SODIUM: 150.25 MEQ/L
  TOTAL BILIRUBIN: 0.55 mg/dL
  TOTAL PROTEIN: 6.97 G/DL
  URIC ACID: 1 mg/dL

From ChEMBL document CHEMBL3885881, “DrugMatrix”
